Activity calls are given as the source filed them.
How the values were obtained:
[1] = tested on: Candida albicans; assay: growth inhibition of azole-resistant C. albicans, dose response, CaCi-8 strain, Alamar Blue, dry powder, set 2 (AID 488909); assay type: functional, organism-based
[2] = tested on: Candida albicans; assay: fluconazole resistance reversal in C. albicans, dose response, CaCi-2 strain, Alamar Blue, dry powder, set 4 (AID 488943); assay type: functional, organism-based
[3] = tested on: Candida albicans; assay: growth inhibition of resistant C. albicans, dose response, CaCi-8 strain, fluconazole, dry powder, set 4 (AID 488950); assay type: functional, organism-based
[4] = cytotoxicity in MIN6 insulinoma cells, dose response, cytotoxicity control, cell-based, mouse insulinoma (AID 2122); assay type: functional;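 also: confirmatory high-throughput counterscreen run to flag cytotoxic compounds; mouse MIN-6 beta cells carrying an insulin promoter eGFP reporter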
[5] = Vero E6 cell cytotoxicity, dose response, cytotoxicity control for non-replicating M. tuberculosis project, secondary assay (AID 492998); assay type: functional, VeroE6; conditions: Vero C1008
[6] = Luminescence Cell-Based Dose Retest to Confirm Inhibitors of Cancer Stem Cells. [Related pubchem assays (depositor defined):AID2717, AID2721]; assay type: functional, Homo sapiens; conditions: Homo sapiens
[7] = cells; assay type: functional
[8] = target: NACHT, LRR and PYD domains-containing protein 1 (Homo sapiens, UniProt Q9C000); assay: NALP1 inhibitors in yeast, dose response, luminescent (AID 488860); assay type: functional
[9] = control 3'UTR Renilla luciferase suppression, dose response, counter-screen for Shn3 inhibitor project, cell-based, Clone20-Shn3RL, cherry-picked (AID 624133); assay type: functional
[10] = Shn3 3'UTR reporter inhibitors, dose response, cell-based, Clone20 osteoblasts, firefly luciferase, cherry-picked (AID 624132); assay type: functional;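 also: firefly luciferase luminescence from reporter carrying the Shn3 3'UTR in osteoblasts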
[11] = tested on: Saccharomyces cerevisiae; assay: NALP1 inhibitor project selectivity study, Caspase-1/ASC signal blockade IC50 in S. cerevisiae (AID 488863); assay type: functional, organism-based
[12] = tested on: A-375; assay: A375 melanoma cell viability reduction, dose response, counter-screen for MITF modulator project, cherry-pick samples, set 2 (AID 540335); assay type: functional, cell-based; conditions: Homo sapiens
[13] = THP-1 cell cytotoxicity, dose response, cytotoxicity control for non-replicating M. tuberculosis project (AID 489025); assay type: functional
[14] = tested on: A-375; assay: MITF: Counter assay: A375 proliferation Measured in Cell-Based System Using Plate Reader - 2084-03_Inhibitor_Dose_DryPowder_Activity. [Related pubchem assays (depositor defined):AID488944]; assay type: functional; conditions: Homo sapiens
[15] = HepG2 cell cytotoxicity, dose response, cytotoxicity control for Shn3 inhibitor project, CellTiter-Glo, cherry-picked (AID 624134); assay type: functional, cell-based
[16] = HepG2 cell cytotoxicity, dose response, cytotoxicity control for non-replicating M. tuberculosis project (AID 489018); assay type: functional; conditions: Mycobacterium tuberculosis
[17] = target: T1, Microphthalmia-associated transcription factor (Homo sapiens, UniProt O75030); assay: TRPM1 promoter luciferase signal decrease, dose response, MITF inhibitor project, cell-based, SK-MEL-5, cherry-picked, set 3 (AID 493073); assay type: functional
T1 sequence (O75030 whole entry): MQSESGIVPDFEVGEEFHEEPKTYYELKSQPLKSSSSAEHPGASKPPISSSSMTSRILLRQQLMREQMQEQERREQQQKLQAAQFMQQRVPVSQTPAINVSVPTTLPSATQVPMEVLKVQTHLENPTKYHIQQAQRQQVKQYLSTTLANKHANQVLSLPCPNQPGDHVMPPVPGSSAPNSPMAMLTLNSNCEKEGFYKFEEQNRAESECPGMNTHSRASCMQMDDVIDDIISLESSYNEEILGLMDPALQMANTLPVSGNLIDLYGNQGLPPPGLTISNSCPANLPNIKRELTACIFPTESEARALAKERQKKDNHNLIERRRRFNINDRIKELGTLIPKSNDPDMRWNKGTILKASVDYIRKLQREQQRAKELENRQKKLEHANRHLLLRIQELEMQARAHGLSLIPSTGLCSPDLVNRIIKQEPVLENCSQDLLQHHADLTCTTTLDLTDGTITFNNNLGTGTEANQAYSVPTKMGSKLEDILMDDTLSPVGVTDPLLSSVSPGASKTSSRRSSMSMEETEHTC

[18] = insulin promoter down-regulators in MIN6 cells, imaging, high-content screening, mouse beta cells (AID 1628); assay type: functional
[19] = growth suppression of PTEN-null colon cells, dose response, cell-based, HCT116 PTEN knockout (AID 1047); assay type: functional;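 also: HCT116 colon tumor cells with PTEN knocked out; cells exposed to compound for 60 hours before readout; potency for loss of cell viability measured by luminescence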
[20] = growth suppression of beta-catenin-knockout colon cells, dose response, cell-based, HCT116, human colon tumor (AID 1045); assay type: functional;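 also: HCT116 colon tumor cells with beta catenin knocked out; cells exposed to compound for 60 hours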
[21] = target: Phospholipase D1 (Homo sapiens, UniProt Q13393); assay: PLD1 inhibitor potency in cells, dose response (AID 602151); assay type: functional;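 also: cellular PLD1 assay in Calu-1 cells stimulated with PMA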
[22] = target: Phospholipase D2 (Homo sapiens, UniProt O14939); assay: PLD2 inhibitor potency in cells, dose response (AID 602147); assay type: functional;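 also: cellular assay in HEK293 cells overexpressing GFP-tagged PLD2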
[23] = target: Beta-galactosidase (Escherichia coli, UniProt Q8VNN2); assay: PubChem AID 485352; assay type: functional
[24] = target: Type-1 angiotensin II receptor (Homo sapiens, UniProt P30556); assay: AT1 receptor antagonists, dose response, selectivity assay for APJ receptor antagonist project, cell-based, uHTS hits (AID 463214); assay type: functional;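 also: antagonist potency against angiotensin II stimulated AT1 response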
Sequence of Type-1 angiotensin II receptor (P30556 whole entry): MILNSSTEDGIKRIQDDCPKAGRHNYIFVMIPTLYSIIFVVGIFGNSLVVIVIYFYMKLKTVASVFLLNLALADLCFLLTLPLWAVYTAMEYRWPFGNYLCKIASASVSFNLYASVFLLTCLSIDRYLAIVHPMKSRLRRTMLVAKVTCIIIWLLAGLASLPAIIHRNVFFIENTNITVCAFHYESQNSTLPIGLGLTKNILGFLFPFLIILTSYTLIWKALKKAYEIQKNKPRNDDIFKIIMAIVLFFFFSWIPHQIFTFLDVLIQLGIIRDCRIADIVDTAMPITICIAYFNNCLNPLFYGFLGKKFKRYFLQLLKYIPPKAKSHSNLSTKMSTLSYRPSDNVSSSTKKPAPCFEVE

Sequence of Phospholipase D1 (Q13393 whole entry): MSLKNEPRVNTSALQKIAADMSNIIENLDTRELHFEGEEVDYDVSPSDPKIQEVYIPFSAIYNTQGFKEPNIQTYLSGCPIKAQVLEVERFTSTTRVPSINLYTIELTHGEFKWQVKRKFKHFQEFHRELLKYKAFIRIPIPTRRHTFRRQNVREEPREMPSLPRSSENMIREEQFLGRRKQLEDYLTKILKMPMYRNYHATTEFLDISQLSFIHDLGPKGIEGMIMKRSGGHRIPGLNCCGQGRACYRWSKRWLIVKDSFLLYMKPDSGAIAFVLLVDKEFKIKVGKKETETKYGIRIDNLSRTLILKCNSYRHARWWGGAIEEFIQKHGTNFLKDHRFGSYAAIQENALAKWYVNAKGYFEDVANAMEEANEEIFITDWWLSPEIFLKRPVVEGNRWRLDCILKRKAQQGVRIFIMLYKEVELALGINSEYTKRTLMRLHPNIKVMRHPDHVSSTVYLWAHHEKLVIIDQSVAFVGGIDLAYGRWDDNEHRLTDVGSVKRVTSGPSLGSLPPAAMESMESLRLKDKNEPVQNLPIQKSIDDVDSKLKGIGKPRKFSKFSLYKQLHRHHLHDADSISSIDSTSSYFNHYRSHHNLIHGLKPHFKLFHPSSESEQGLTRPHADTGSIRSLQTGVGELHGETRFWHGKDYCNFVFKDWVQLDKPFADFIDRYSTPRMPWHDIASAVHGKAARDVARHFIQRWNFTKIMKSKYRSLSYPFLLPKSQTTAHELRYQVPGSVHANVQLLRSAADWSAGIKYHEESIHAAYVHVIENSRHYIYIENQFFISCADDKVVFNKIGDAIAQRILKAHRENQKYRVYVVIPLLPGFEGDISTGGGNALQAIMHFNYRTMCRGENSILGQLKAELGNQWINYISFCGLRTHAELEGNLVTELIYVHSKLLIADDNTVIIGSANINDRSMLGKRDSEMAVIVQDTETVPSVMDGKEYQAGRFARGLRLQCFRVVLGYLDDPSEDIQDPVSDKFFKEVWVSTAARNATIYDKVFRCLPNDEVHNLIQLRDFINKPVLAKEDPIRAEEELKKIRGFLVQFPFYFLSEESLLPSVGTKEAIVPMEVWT
Sequence of Phospholipase D2 (O14939 whole entry): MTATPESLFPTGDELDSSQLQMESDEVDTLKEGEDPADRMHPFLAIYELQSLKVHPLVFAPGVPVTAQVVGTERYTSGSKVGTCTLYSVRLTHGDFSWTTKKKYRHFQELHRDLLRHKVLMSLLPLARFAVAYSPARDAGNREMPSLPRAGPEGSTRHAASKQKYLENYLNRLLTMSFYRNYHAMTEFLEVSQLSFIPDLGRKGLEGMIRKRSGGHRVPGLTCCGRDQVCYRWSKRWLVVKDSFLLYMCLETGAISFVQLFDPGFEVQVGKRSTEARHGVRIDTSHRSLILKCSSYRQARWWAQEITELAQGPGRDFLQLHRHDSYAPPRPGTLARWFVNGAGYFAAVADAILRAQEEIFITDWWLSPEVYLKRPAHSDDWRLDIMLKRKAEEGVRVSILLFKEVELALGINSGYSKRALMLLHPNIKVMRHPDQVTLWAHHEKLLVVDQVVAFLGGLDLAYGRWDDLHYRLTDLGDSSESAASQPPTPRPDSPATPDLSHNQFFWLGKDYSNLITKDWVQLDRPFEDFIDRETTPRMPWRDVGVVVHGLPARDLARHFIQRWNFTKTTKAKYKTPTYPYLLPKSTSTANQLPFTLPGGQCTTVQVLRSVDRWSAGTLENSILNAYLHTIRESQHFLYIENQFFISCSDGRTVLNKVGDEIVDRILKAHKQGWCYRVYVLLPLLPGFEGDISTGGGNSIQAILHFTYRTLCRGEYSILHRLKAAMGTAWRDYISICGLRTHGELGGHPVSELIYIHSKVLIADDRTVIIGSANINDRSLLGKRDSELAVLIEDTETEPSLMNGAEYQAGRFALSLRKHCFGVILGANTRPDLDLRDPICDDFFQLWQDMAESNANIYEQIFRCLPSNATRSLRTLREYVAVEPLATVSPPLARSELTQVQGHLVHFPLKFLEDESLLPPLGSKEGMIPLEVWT
Sequence of NACHT, LRR and PYD domains-containing protein 1 (Q9C000 1-1212 limits assumed): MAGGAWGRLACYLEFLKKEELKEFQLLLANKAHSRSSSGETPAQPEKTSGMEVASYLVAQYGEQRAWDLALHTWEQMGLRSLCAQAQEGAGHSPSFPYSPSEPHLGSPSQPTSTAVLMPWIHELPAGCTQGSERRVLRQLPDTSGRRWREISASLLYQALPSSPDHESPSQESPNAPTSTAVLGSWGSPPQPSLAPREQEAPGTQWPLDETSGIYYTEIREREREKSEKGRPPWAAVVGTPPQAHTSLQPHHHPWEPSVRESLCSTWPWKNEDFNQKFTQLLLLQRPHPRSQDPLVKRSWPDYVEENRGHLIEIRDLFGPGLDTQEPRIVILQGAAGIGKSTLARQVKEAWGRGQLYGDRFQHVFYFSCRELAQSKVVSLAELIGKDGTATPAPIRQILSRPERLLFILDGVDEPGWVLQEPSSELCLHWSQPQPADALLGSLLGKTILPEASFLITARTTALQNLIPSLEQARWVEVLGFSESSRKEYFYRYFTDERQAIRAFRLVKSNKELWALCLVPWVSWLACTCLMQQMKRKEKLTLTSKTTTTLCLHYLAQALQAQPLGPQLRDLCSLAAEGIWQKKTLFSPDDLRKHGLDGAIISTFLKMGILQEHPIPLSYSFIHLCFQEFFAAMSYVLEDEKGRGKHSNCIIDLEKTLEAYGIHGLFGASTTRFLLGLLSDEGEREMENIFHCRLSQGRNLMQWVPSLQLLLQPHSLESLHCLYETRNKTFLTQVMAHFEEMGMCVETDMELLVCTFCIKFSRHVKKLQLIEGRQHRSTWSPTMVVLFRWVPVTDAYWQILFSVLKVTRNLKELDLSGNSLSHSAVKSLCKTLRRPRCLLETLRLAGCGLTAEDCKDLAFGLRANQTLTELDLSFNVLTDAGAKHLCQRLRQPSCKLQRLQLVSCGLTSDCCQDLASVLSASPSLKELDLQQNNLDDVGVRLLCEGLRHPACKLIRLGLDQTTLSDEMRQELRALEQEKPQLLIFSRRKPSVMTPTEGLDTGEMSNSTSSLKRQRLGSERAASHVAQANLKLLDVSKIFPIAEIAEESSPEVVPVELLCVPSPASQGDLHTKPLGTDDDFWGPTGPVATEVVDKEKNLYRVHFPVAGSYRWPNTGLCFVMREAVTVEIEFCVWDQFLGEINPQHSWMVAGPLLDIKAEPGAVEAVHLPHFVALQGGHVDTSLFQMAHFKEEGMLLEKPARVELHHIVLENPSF
Sequence of NACHT, LRR and PYD domains-containing protein 1 (Q9C000 1213-1473 limits assumed): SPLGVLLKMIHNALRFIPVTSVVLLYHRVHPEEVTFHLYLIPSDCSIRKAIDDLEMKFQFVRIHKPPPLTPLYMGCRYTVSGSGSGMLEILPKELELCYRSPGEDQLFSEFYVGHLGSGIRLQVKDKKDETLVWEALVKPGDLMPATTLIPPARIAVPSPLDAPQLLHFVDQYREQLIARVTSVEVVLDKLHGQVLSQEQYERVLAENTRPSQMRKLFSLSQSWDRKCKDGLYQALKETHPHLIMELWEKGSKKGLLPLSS
Sequence of Beta-galactosidase (Q8VNN2 whole entry): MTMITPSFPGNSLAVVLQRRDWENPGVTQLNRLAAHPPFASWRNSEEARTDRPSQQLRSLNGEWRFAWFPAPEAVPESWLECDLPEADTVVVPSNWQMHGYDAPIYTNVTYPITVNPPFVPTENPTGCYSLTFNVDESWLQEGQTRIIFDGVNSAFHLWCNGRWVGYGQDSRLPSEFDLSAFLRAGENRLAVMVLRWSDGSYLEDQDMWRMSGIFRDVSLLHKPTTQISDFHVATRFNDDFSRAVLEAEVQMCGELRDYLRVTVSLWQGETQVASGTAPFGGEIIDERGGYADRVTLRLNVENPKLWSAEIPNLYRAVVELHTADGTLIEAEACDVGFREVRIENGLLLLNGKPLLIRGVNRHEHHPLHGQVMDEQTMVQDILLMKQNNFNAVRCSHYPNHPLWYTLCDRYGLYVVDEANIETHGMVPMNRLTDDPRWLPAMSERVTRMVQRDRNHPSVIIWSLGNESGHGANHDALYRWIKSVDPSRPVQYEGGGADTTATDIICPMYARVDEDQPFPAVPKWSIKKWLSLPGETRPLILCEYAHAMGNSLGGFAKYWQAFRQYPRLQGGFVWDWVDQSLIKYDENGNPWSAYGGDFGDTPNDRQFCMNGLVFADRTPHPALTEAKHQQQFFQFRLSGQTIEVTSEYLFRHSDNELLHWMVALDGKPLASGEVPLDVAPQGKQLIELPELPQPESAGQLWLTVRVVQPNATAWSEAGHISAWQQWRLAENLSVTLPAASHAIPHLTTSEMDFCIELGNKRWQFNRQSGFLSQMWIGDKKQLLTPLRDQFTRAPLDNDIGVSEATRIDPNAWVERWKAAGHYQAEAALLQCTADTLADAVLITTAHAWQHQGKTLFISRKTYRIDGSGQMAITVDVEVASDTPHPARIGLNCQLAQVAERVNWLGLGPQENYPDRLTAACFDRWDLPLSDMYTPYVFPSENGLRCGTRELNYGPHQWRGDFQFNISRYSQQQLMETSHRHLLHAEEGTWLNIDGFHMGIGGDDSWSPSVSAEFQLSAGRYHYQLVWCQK

## O=C(c1ccc(Cl)cc1)N1CCN(c2ncnc3ccccc23)CC1
[1]
  AC50: 4.12 µM (active)
[2]
  AC50: 1.07 µM (active)
[3]
  AC50: 2.27 µM (active)

## CCCOc1ccc(C(=O)C(CN2CCCC2)c2ccccc2)cc1 (centres undefined)
[4]
  IC50: 3.13 µM (active)
[5]
  CC50: 9.02 µM (active)
[6]
  AC50: 1.76 µM (active)
[7]
  IC50: 12.7 µM (active)
[8]
  IC50: 10.2 µM (active)
[9]
  AC50: 13.2 µM (active)
[10]
  AC50: 4.84 µM (active)
[11]
  IC50: 5.8 µM (active)
[12]
  AC50: > 35 µM (active)
[13]
  CC50: 6.32 µM (active)
[14]
  AC50: > 35 µM (active)
[15]
  AC50: 22.6 µM (active)
[16]
  CC50: 13.3 µM (active)
[17]
  AC50: 8.62 µM (active)
[18]
  IC50: 3.73 µM (active)
[19]
  EC50: 2.19 µM (active)
[20]
  EC50: 1.96 µM (active)

## O=C(NCCN1CCC(n2c(=O)[nH]c3ccccc32)CC1)c1cscn1
[21]
  IC50: 0.033 µM (active)
[22]
  IC50: 0.25 µM (active)

## Cc1ccc(C)c(NCC(=O)c2ccc(Cl)cc2)c1
[23]
  EC50: > 40 µM (inactive)
[24]
  IC50: 14.4 µM (active)
